The values that follow come from ChEMBL document CHEMBL5143649, “Broad-spectrum cyclic boronate β-lactamase inhibitors featuring an intramolecular prodrug for oral bioavailability” (Bioorg Med Chem, 2022).

What is called bioavailability is the share of a dose that reaches the circulation, judged against a reference dose that is usually intravenous. A word on the AUC: it is the area under the concentration-time curve, a measure of exposure.

Each structure is given as a SMILES string.

Series [1] relates to Klebsiella pneumoniae. Put plainly: Potentiation of aztreonam-induced antibacterial activity against Klebsiella pneumoniae 1004 producing KPC assessed as concentration required to reduce aztreonam MIC to 4 ug/ml by CLSI based broth microdilution method. In kind it is functional. A general note: Broth dilution looks for growth in wells or tubes with falling amounts of substance.

For series [2], the system named is Escherichia coli. Put plainly: Potentiation of aztreonam-induced antibacterial activity against Escherichia coli 302 producing TEM-10 assessed as concentration required to reduce aztreonam MIC to 4 ug/ml by CLSI based broth microdilution method. It counts as functional.
The test system of series [3] is Enterobacter cloacae. Put plainly: Potentiation of aztreonam-induced antibacterial activity against Enterobacter cloacae 1002 producing AmpC assessed as concentration required to reduce aztreonam MIC to 4 ug/ml by CLSI based broth microdilution method. It counts as functional.
Series [4] in a line: Oral bioavailability in rat. It counts as ADME, organism-based. Conditions: in vivo.
The test system of series [5] is Escherichia coli. Kind of series: Potentiation of aztreonam-induced antibacterial activity against Escherichia coli 308 producing SHV-5 assessed as concentration required to reduce aztreonam MIC to 4 ug/ml by CLSI based broth microdilution method. In kind it is functional.
In series [6] the test system is Klebsiella pneumoniae. Put plainly: Potentiation of aztreonam-induced antibacterial activity against Klebsiella pneumoniae 1009 producing class A CTX-M-14 assessed as concentration required to reduce aztreonam MIC to 4 ug/ml by CLSI based broth microdilution method. It counts as functional.
Series [7] has as its system Escherichia coli. Kind of series: Potentiation of aztreonam-induced antibacterial activity against Escherichia coli 1010 producing CMY-6 assessed as concentration required to reduce aztreonam MIC to 4 ug/ml by CLSI based broth microdilution method. In kind it is functional.
The nature of series [8]: AUC in rat at 30 mg/kg, po measured upto 24 hrs by HPLC-MS analysis. Conditions: in vivo. It counts as ADME, organism-based. On the set-up: dose 30 mg/kg, time < 24 hrs, route po.
Series [9] in a line: Oral bioavailability in rat at 300 mg/kg measured upto 24 hrs by HPLC-MS analysis. Conditions: in vivo. It counts as ADME, organism-based.
Series [10] can be described thus: Oral bioavailability in rat at 30 mg/kg measured upto 24 hrs by HPLC-MS analysis. It counts as ADME, organism-based. Conditions: in vivo.
A short description of series [11]: AUC in rat at 100 mg/kg, po measured upto 24 hrs by HPLC-MS analysis. It counts as ADME, organism-based. On the set-up: time < 24 hrs, dose 100 mg/kg, route po. The conditions noted are these: in vivo.
A short description of series [12]: Oral bioavailability in rat at 100 mg/kg measured upto 24 hrs by HPLC-MS analysis. It counts as ADME, organism-based. The conditions noted are these: in vivo.
Series [13] is described as follows: AUC in rat at 300 mg/kg, po measured upto 24 hrs by HPLC-MS analysis. In kind it is ADME, organism-based. Details: dose 300 mg/kg, time < 24 hrs, route po. Conditions: in vivo.
Series [14] has as its system Escherichia coli. Put plainly: microbe, parasite or virus in culture. Conditions: 308.
For series [15], the system named is Escherichia coli. Kind of series: microbe, parasite or virus in culture. Conditions: 302.
The subject of series [16] is Klebsiella pneumoniae. Put plainly: microbe, parasite or virus in culture. Conditions: 1009.
For series [17], the system named is Escherichia coli. Kind of series: microbe, parasite or virus in culture. The conditions noted are these: 1010.
In series [18] the test system is Klebsiella pneumoniae. Put plainly: microbe, parasite or virus in culture. Conditions: 1004.
The nature of series [19]: AUC in rat at 100 mg/kg administered as iv infusion for 0.5 hrs and measured upto 24 hrs by HPLC-MS analysis. In kind it is ADME, organism-based. On the set-up: dose 100 mg/kg, time < 24.5 hrs, route iv. The conditions noted are these: in vivo.
Series [20] in a line: AUC in rat at 30 mg/kg administered as iv infusion for 0.5 hrs and measured upto 24 hrs by HPLC-MS analysis. Details: time < 24.5 hrs, dose 30 mg/kg, route iv. In kind it is ADME, organism-based. The conditions noted are these: in vivo.
Series [21] in a line: AUC in rat at 300 mg/kg administered as iv infusion for 0.5 hrs and measured upto 24 hrs by HPLC-MS analysis. In kind it is ADME, organism-based. Details: time < 24.5 hrs, dose 300 mg/kg, route iv. Conditions: in vivo.

Consider `O=C(O)C[C@@H]1CC[C@H](NC(=O)Cc2cccs2)B(O)O1` [VABORBACTAM], for which the EC in series [1] is 1.25 µg/mL; in [2], more than 40 µg/mL; in series [3], 20 µg/mL; in [5], more than 40 µg/mL; in series [6], more than 40 µg/mL; in series [7], 20 µg/mL. Moreover, the bioavailability in series [4] was less than 10%.

For `CSCC(=O)N[C@H]1CC=C[C@H](CC(=O)O)OB1O`, the EC is 10 µg/mL in series [1]; 5 µg/mL in series [2]; 1.25 µg/mL in series [3]; 1.25 µg/mL in [5]; 2.5 µg/mL in [6]; 5 µg/mL in series [7].

As for `CC(=O)N1CC(CC(=O)O)OB(O)[C@@H](NC(=O)Cc2cccs2)C1` (stereo partly drawn), the EC in [1] turned out to be 40 µg/mL; in series [2], 20 µg/mL; in [3] it was 20 µg/mL; in series [5], 1.25 µg/mL; in [6], 5 µg/mL; in series [7] it was 10 µg/mL.

On to `COC(=O)N1CC(CC(=O)O)OB(O)[C@@H](NC(=O)Cc2cccs2)C1` (stereo partly drawn), for which the EC was 40 µg/mL in series [1]; 20 µg/mL in series [2]; 2.5 µg/mL in series [5]; 10 µg/mL in [6]; 20 µg/mL in series [7].

For `CSCC(=O)N[C@H]1CC=C[C@@H]2CC(=O)OB1O2`, the exposure (AUC) at 24 h in series [8] was determined as 14600 ng·h/mL; in series [11] it was 55000 ng·h/mL; in [13], 179000 ng·h/mL. For the same compound, the bioavailability amounted to 64.9% in series [9], 52% in series [10] and 69.3% in series [12].

Regarding `O=C(O)CC1COC[C@H](NC(=O)Cc2cccs2)B(O)O1` (stereo partly drawn), the EC stood at 40 µg/mL in series [1]; 20 µg/mL in [2]; 10 µg/mL in [3]; 5 µg/mL in series [5]; 5 µg/mL in series [6]; 10 µg/mL in series [7].

In the case of `C[C@H]1[C@H](NC(=O)/C(=N\OC(C)(C)C(=O)O)c2csc(N)n2)C(=O)N1S(=O)(=O)O` [AZTREONAM], the MIC in series [14], in [15], in series [16], in series [17] and in series [18] was more than 64 µg/mL in each case.

Compound `O=C(Cc1cccs1)N[C@H]1CC=C[C@@H]2CC(=O)OB1O2` showed a bioavailability in series [4] of 48%.

For the compound `O=C(O)C[C@H]1C=CC[C@H](NC(=O)c2cccnc2)B(O)O1`, the EC in series [1] was determined as 10 µg/mL; in series [2], 1.25 µg/mL; in series [3], 1.25 µg/mL; in [5], 2.5 µg/mL; in [6], 5 µg/mL; in [7] it was 1.25 µg/mL.

On to `Nc1nnc(SCC(=O)N[C@H]2CC=C[C@H](CC(=O)O)OB2O)s1`, for which the EC in series [1] turned out to be 5 µg/mL; in series [2], 5 µg/mL; in [3] it was 0.6 µg/mL; in [5], 1.25 µg/mL; in series [6] it was 2.5 µg/mL; in series [7] it was 1.25 µg/mL.

On to `O=C(O)C[C@@H]1C=CC[C@H](NC(=O)Cc2cccs2)B(O)O1`, for which the EC in [1] is 40 µg/mL; in series [2] it was more than 40 µg/mL; in series [3], 10 µg/mL; in series [5], 10 µg/mL; in series [6], 20 µg/mL; in [7], 40 µg/mL.

As to `O=C(O)C[C@H]1C=CC[C@H](NC(=O)Cc2cccs2)B(O)O1`, the EC in series [1] was determined as 10 µg/mL; in series [2] it was 5 µg/mL; in [3] it was 2.5 µg/mL; in series [5], 1.25 µg/mL; in series [6] it was 5 µg/mL; in series [7], 10 µg/mL.

On to `O=C(O)CC1CCC[C@H](NC(=O)Cc2cccs2)B(O)O1` (stereo partly drawn), for which the EC is 20 µg/mL in series [1]; more than 40 µg/mL in [2]; 10 µg/mL in series [3]; 10 µg/mL in series [5]; 10 µg/mL in series [6]; 10 µg/mL in [7].

With `O=C(O)CC1C=CC[C@H](NC(=O)Cc2cccs2)B(O)O1` (stereo partly drawn), the EC in series [1] worked out at 20 µg/mL; in [2], 10 µg/mL; in [3] it was 10 µg/mL; in series [5] it was 2.5 µg/mL; in series [6], 10 µg/mL; in [7] it was 20 µg/mL.

For `CSCC(=O)N[C@H]1CC=C[C@H](CC(=O)[O-])OB1O.[Na+]`, the AUC at 24 h in [8] is 2600 ng·h/mL. Moreover, the area under the curve (AUC) at 24.5 h in [19] turned out to be 79400 ng·h/mL; in series [20] it was 28100 ng·h/mL; in series [21], 276000 ng·h/mL. In series [10], this compound showed a bioavailability of 9.3%.
